US9914754B2, “Conjugates of neurotensin or neurotensin analogs and uses thereof” (Angiochem Inc., priority 2008, dated 2018)
pIC50: −log10 of the molar value. Like-named read-outs stand apart in the source and are kept apart here. Peptide text beside a SMILES is read from it.

What was measured:
NTSR1 = NTSR1 (Homo sapiens, UniProt P30989); format: binding
[1] = in situ brain perfusion assay; cited from earlier work
[2] = competition with [3H]-NT on HT29 cells expressing NTSR1

Chain of NTSR1 (P30989 whole entry, the tested form may be a part): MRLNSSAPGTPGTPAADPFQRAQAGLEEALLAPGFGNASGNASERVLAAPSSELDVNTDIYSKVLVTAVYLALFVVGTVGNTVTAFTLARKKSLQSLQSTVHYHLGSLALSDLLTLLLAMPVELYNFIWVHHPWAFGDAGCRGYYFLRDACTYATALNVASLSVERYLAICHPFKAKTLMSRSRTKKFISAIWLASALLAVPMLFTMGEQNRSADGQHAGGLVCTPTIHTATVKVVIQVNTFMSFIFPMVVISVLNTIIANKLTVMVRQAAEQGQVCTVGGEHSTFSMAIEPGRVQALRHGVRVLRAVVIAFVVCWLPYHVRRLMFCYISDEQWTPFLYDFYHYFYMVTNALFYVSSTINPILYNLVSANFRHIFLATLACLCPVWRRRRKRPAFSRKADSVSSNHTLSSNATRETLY

| Molecule | pIC50 (NTSR1; HT29 cells, [3H]-NT, values in the text (FIGS. 21, 22)) | pIC50 (NTSR1; [2]) | transport across the BBB relative to Angiopep-1 (250 nM) [1] [%] |
| --- | --- | --- | --- |
| CC[C@H](C)[C@H](NC(=O)[C@@H](Cc1ccc(O)cc1)NC(=O)[C@@H]1CCCN1C(=O)[C@H](CCCNC(=N)N)NC(=O)[C@H](CCCNC(=N)N)NC(=O)C(CCCCNC(=O)CCCCCN1C(=O)CC(SC[C@H](NC(=O)[C@H](Cc2ccc(O)cc2)NC(=O)[C@H](CCC(=O)O)NC(=O)[C@H](CCC(=O)O)NC(=O)[C@@H](NC(=O)[C@H](CCCCN)NC(=O)[C@H](Cc2ccccc2)NC(=O)[C@H](CC(N)=O)NC(=O)[C@H](CC(N)=O)NC(=O)[C@H](CCCNC(=N)N)NC(=O)[C@H](CCCCN)NC(=O)CNC(=O)[C@H](CCCNC(=N)N)NC(=O)[C@H](CO)NC(=O)CNC(=O)CNC(=O)[C@H](Cc2ccc(O)cc2)NC(=O)[C@H](Cc2ccccc2)NC(=O)[C@H](Cc2ccccc2)NC(=O)[C@@H](N)[C@@H](C)O)[C@@H](C)O)C(N)=O)C1=O)NC(C)=O)C(=O)N[C@@H](CC(C)C)C(=O)O (stereo partly drawn) [Ac-Lys-[D-Tyr^11]NT(8-13)-An2] | 5.27 | < 7.00 |  |
| CC[C@H](C)[C@H](NC(=O)[C@H](Cc1ccc(O)cc1)NC(=O)[C@@H]1CCCN1C(=O)[C@H](CCCNC(=N)N)NC(=O)[C@H](CCCNC(=N)N)NC(=O)[C@H](CCCCN)NC(C)=O)C(=O)N[C@@H](CC(C)C)C(=O)O [AcLys-NT(8-13)] (Ac-KRRPYIL-OH) |  | 9.00 |  |
| T F F Y G G S R G K R N N F R T E E Y (TFFYGGSRGKRNNFRTEEY) [Angiopep-6] |  |  | 38.5 |
